Source: patent publication US20260317324A1, “BIFUNCTIONAL COMPOUNDS FOR DEGRADING BRAF VIA UBIQUITIN PROTEOSOME PATHWAY” (Nurix Therapeutics, Inc., priority 2023, published 2026)

Target: T1, BRAF V600E (Homo sapiens, UniProt P15056, V600E)
T1 construct: endogenous C-terminal HiBiT fusion tag on BRAF V600E allele; endogenous in cells; host or cells: A375 clone 1F10 (CRISPR-Cas9 knock-in of the HiBiT tag; parental A375 from ATCC)
Assay: BRAF HiBiT degradation assay, C-terminal HiBiT-tagged BRAF V600E A375 cells (clone 1F10), Nano-Glo HiBiT Lytic assay
Assay type: cell-based
Conditions: for Dmax: A-375
Summary of the method: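 A375 cells (clone 1F10, endogenous C-terminal HiBiT on BRAF V600E) were seeded at 10,000 cells/well, grown 24 h, then dosed in duplicate with an 11-point series from 1 μM to 0.01 nM (0.2% DMSO). Nano-Glo HiBiT lytic luminescence was normalised to DMSO and wildtype-A375 background; DC50 was read at 50% protein remaining, alongside observed Dmax.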

[1] = A375 (BRAF V600E, Class 1), DC50 at 50% degradation
[2] = A375 (BRAF V600E, Class 1), observed Dmax, % protein degraded relative to DMSO control
[3] = A375 (BRAF V600E), DC50 at 50%: fitted conc. at Y=50
[4] = A375 (BRAF V600E), percentage protein degraded at maximal compound effect relative to DMSO

T1 sequence (P15056 whole entry V600E, the tested form may be a part): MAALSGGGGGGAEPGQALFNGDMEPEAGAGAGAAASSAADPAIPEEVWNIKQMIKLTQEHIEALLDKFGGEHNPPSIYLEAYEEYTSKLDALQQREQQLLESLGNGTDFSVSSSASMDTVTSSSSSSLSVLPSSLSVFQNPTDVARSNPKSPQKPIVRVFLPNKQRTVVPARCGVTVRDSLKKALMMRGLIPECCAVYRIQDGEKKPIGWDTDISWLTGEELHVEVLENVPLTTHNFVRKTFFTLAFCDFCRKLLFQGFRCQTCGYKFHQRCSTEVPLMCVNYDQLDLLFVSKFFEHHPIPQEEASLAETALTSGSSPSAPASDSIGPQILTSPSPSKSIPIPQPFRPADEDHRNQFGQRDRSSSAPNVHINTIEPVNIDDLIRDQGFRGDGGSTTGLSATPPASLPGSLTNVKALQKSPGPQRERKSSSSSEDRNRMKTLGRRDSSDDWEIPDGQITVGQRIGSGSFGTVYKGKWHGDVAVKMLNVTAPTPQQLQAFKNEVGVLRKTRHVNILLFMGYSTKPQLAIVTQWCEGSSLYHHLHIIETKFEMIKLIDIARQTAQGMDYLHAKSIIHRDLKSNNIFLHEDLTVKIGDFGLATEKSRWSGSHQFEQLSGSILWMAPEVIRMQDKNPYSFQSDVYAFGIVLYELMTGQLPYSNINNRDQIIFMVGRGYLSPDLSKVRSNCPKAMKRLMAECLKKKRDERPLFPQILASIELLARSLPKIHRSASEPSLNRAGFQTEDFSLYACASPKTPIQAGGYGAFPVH

Compound | DC50 [1] [nM] | Dmax [2] [%] | DC50 [3] [nM] | Dmax [4] [%]
O=C1CCC(c2ccc(N3CCC(CN4CCN(c5ccc(-n6cc(-c7cc(F)cc(NS(=O)(=O)N8CCCC8)c7F)c(-c7ccncc7)n6)c(F)c5)CC4)CC3)nc2)C(=O)N1 (racemic) [Compound 341, Rac-N-{3-[1-(4-{4-[(1-{5-[(3R)-2,6-dioxopiperidin-3-yl]pyridin-2-yl}piperidin-4-yl)methyl]piperazin-1-yl}-2-fluorophenyl)-3-(pyridin-4-yl)-1H-pyrazol-4-yl]-2,5-difluorophenyl}pyrrolidine-1-sulfonamide] | < 10 | > 70 | – | –
O=C1CCC(c2ccc(N3CCC(CN4CCN(c5cnc(-n6cc(-c7cc(F)cc(NS(=O)(=O)N8CCCC8)c7F)c(-c7ccncc7)n6)nc5)CC4)CC3)nc2)C(=O)N1 (racemic) [Compound 343, Rac-N-{3-[1-(5-{4-[(1-{5-[(3R)-2,6-dioxopiperidin-3-yl]pyridin-2-yl}piperidin-4-yl)methyl]piperazin-1-yl}pyrimidin-2-yl)-3-(pyridin-4-yl)-1H-pyrazol-4-yl]-2,5-difluorophenyl}pyrrolidine-1-sulfonamide] | < 10 | > 70 | – | –
CCCS(=O)(=O)Nc1cccc(-c2cn(-c3ccc(N4CCN(CC5CCN(c6ccc([C@@H]7CCC(=O)NC7=O)cn6)CC5)CC4)cc3)nc2-c2ccncc2)c1F [Compound 1, N-{3-[1-(4-{4-[(1-{5-[(3S)-2,6-dioxopiperidin-3-yl]pyridin-2-yl}piperidin-4-yl)methyl]piperazin-1-yl}phenyl)-3-(pyridin-4-yl)-1H-pyrazol-4-yl]-2-fluorophenyl}propane-1-sulfonamide] | – | – | 10 to 50 | > 70
CCCS(=O)(=O)Nc1cccc(-c2cn(-c3ccc(C(=O)N4CCN(CC5CCN(c6ccc([C@H]7CCC(=O)NC7=O)cc6)CC5)CC4)cc3)nc2-c2ccncc2)c1F [Compound 11, N-{3-[1-(4-{4-[(1-{4-[(3R)-2,6-dioxopiperidin-3-yl]phenyl}piperidin-4-yl)methyl]piperazine-1-carbonyl}phenyl)-3-(pyridin-4-yl)-1H-pyrazol-4-yl]-2-fluorophenyl}propane-1-sulfonamide] | – | – | 50 to 500 | 30 to 70
CCCS(=O)(=O)Nc1cccc(-c2cn(-c3ccc(C(=O)N4CCN(CC5CCN(c6ccc([C@@H]7CCC(=O)NC7=O)cc6)CC5)CC4)cc3)nc2-c2ccncc2)c1F [Compound 12, N-{3-[1-(4-{4-[(1-{4-[(3S)-2,6-dioxopiperidin-3-yl]phenyl}piperidin-4-yl)methyl]piperazine-1-carbonyl}phenyl)-3-(pyridin-4-yl)-1H-pyrazol-4-yl]-2-fluorophenyl}propane-1-sulfonamide] | – | – | 50 to 500 | 30 to 70
CCCS(=O)(=O)Nc1cccc(-c2nc(C)sc2-c2ccnc(Nc3ccc(N4CCN(CC5CCN(c6ccc([C@H]7CCC(=O)NC7=O)cc6)CC5)CC4)cn3)n2)c1F [Compound 60, N-[3-(5-{2-[(5-{4-[(1-{4-[(3R)-2,6-dioxopiperidin-3-yl]phenyl}piperidin-4-yl)methyl]piperazin-1-yl}pyridin-2-yl)amino]pyrimidin-4-yl}-2-methyl-1,3-thiazol-4-yl)-2-fluorophenyl]propane-1-sulfonamide] | – | – | 10 to 50 | > 70
CCCS(=O)(=O)Nc1cccc(-c2nc(C)sc2-c2ccnc(Nc3ccc(C4CCN(CC5CCN(c6ccc([C@H]7CCC(=O)NC7=O)cc6)CC5)CC4)cc3)n2)c1F [Compound 63, N-[3-(5-{2-[(4-{1-[(1-{4-[(3R)-2,6-dioxopiperidin-3-yl]phenyl}piperidin-4-yl)methyl]piperidin-4-yl}phenyl)amino]pyrimidin-4-yl}-2-methyl-1,3-thiazol-4-yl)-2-fluorophenyl]propane-1-sulfonamide] | – | – | < 10 | > 70
CCCS(=O)(=O)Nc1cccc(-c2nc(C)sc2-c2ccnc(Nc3ccc(C4CCN(CC5CCN(c6ccc([C@@H]7CCC(=O)NC7=O)cc6)CC5)CC4)cc3)n2)c1F [Compound 64, N-[3-(5-{2-[(4-{1-[(1-{4-[(3S)-2,6-dioxopiperidin-3-yl]phenyl}piperidin-4-yl)methyl]piperidin-4-yl}phenyl)amino]pyrimidin-4-yl}-2-methyl-1,3-thiazol-4-yl)-2-fluorophenyl]propane-1-sulfonamide] | – | – | 10 to 50 | > 70
CCCS(=O)(=O)Nc1cccc(-c2nc(C(C)(C)C)sc2-c2ccnc(Nc3cnn(CC4CCN(CC5CCN(c6ccc(C(=O)N[C@@H]7CCC(=O)NC7=O)nc6)CC5)CC4)c3)n2)c1F [Compound 66, 5-(4-{[4-({4-[(4-{2-tert-butyl-4-[2-fluoro-3-(propane-1-sulfonamido)phenyl]-1,3-thiazol-5-yl}pyrimidin-2-yl)amino]-1H-pyrazol-1-yl}methyl)piperidin-1-yl]methyl}piperidin-1-yl)-N-[(3R)-2,6-dioxopiperidin-3-yl]pyridine-2-carboxamide] | – | – | < 10 | > 70
CCCS(=O)(=O)Nc1cccc(-c2nc(C(C)(C)C)sc2-c2ccnc(Nc3ccc(C4CCN(C(=O)CCCC(=O)N[C@H](C(=O)N5C[C@H](O)C[C@H]5C(=O)N[C@@H](C)c5ccc(-c6scnc6C)cc5)C(C)(C)C)CC4)cc3)n2)c1F [Compound 86, (2S,4R)-1-[(2S)-2-[5-(4-{4-[(4-{2-tert-butyl-4-[2-fluoro-3-(propane-1-sulfonamido)phenyl]-1,3-thiazol-5-yl}pyrimidin-2-yl)amino]phenyl}piperidin-1-yl)-5-oxopentanamido]-3,3-dimethylbutanoyl]-4-hydroxy-N-[(1S)-1-[4-(4-methyl-1,3-thiazol-5-yl)phenyl]ethyl]pyrrolidine-2-carboxamide] | – | – | 50 to 500 | 30 to 70
CCCS(=O)(=O)Nc1cccc(-c2nc(C(C)(C)C)sc2-c2ccnc(Nc3ccc(N4CCN(CC5CCN(c6ccc([C@@H]7CCC(=O)NC7=O)cc6)CC5)CC4)c(F)c3)n2)c1F [Compound 88, N-[3-(2-tert-butyl-5-{2-[(4-{4-[(1-{4-[(3S)-2,6-dioxopiperidin-3-yl]phenyl}piperidin-4-yl)methyl]piperazin-1-yl}-3-fluorophenyl)amino]pyrimidin-4-yl}-1,3-thiazol-4-yl)-2-fluorophenyl]propane-1-sulfonamide] | – | – | 10 to 50 | 30 to 70
CCCS(=O)(=O)Nc1cccc(-c2nc(C(C)(C)C)sc2-c2ccnc(Nc3ccc(C4CCN(CC5CCN(c6ccc([C@@H]7CCC(=O)NC7=O)cc6)CC5)CC4)cc3)n2)c1F [Compound 90, N-[3-(2-tert-butyl-5-{2-[(4-{1-[(1-{4-[(3S)-2,6-dioxopiperidin-3-yl]phenyl}piperidin-4-yl)methyl]piperidin-4-yl}phenyl)amino]pyrimidin-4-yl}-1,3-thiazol-4-yl)-2-fluorophenyl]propane-1-sulfonamide] | – | – | 10 to 50 | 30 to 70
CCCS(=O)(=O)Nc1cccc(-c2nc(C(C)(C)C)sc2-c2ccnc(NC3CC4(CCN(CC5CCN(c6ccc([C@H]7CCC(=O)NC7=O)cc6)CC5)CC4)C3)n2)c1F [Compound 133, N-(3-{2-tert-butyl-5-[2-({7-[(1-{4-[(3R)-2,6-dioxopiperidin-3-yl]phenyl}piperidin-4-yl)methyl]-7-azaspiro[3.5]nonan-2-yl}amino)pyrimidin-4-yl]-1,3-thiazol-4-yl}-2-fluorophenyl)propane-1-sulfonamide] | – | – | 10 to 50 | 30 to 70
CCCS(=O)(=O)Nc1cccc(-c2nc(C(C)(C)C)sc2-c2ccnc(N[C@H]3CC[C@H](CN4CCN(CC5CCN(c6ccc([C@@H]7CCC(=O)NC7=O)cc6)CC5)CC4)CC3)n2)c1F [Compound 139, N-{3-[2-tert-butyl-5-(2-{[(1r,4r)-4-({4-[(1-{4-[(3S)-2,6-dioxopiperidin-3-yl]phenyl}piperidin-4-yl)methyl]piperazin-1-yl}methyl)cyclohexyl]amino}pyrimidin-4-yl)-1,3-thiazol-4-yl]-2-fluorophenyl}propane-1-sulfonamide] | – | – | 10 to 50 | 30 to 70
CCCS(=O)(=O)Nc1cccc(-c2nc(C(C)(C)C)sc2-c2ccnc(NC[C@H]3CCN(CC4CCN(c5ccc(C(=O)N[C@H]6CCC(=O)NC6=O)nc5)CC4)C3)n2)c1F [Compound 143, 5-(4-{[(3R)-3-{[(4-{2-tert-butyl-4-[2-fluoro-3-(propane-1-sulfonamido)phenyl]-1,3-thiazol-5-yl}pyrimidin-2-yl)amino]methyl}pyrrolidin-1-yl]methyl}piperidin-1-yl)-N-[(3S)-2,6-dioxopiperidin-3-yl]pyridine-2-carboxamide] | – | – | 50 to 500 | 30 to 70
CCCS(=O)(=O)Nc1cccc(-c2nc(C(C)(C)C)sc2-c2ccnc(NCC(C)(C)C3CCN(CC4CCN(c5ccc([C@H]6CCC(=O)NC6=O)cc5)CC4)CC3)n2)c1F [Compound 144, N-[3-(2-tert-butyl-5-{2-[(2-{1-[(1-{4-[(3R)-2,6-dioxopiperidin-3-yl]phenyl}piperidin-4-yl)methyl]piperidin-4-yl}-2-methylpropyl)amino]pyrimidin-4-yl}-1,3-thiazol-4-yl)-2-fluorophenyl]propane-1-sulfonamide] | – | – | 50 to 500 | 30 to 70
CCCS(=O)(=O)Nc1cccc(-c2nc(C(C)(C)C)sc2-c2ccnc(NCC3CCN(CC4CCN(c5ccc([C@H]6CCC(=O)NC6=O)cc5)CC4)CC3)n2)c1F [Compound 145, N-[3-(2-tert-butyl-5-{2-[({1-[(1-{4-[(3R)-2,6-dioxopiperidin-3-yl]phenyl}piperidin-4-yl)methyl]piperidin-4-yl}methyl)amino]pyrimidin-4-yl}-1,3-thiazol-4-yl)-2-fluorophenyl]propane-1-sulfonamide] | – | – | > 500 | 30 to 70
